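How tested: cells in 96-well plates exposed to compound for 48 hours at five concentrations. TGI: concentration producing complete growth inhibition.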
Columns and labels:
Experiment in all cases: NCI anticancer screen, dose series, 48 h
A498 renal = tested on: A498 renal
ACHN renal = tested on: ACHN renal
BT-549 breast = tested on: BT-549 breast
COLO 205 colon = tested on: COLO 205 colon
LOX IMVI melanoma = tested on: LOX IMVI melanoma
MDA-N = tested on: MDA-N
NCI-H226 lung = tested on: NCI-H226 lung
OVCAR-4 ovarian = tested on: OVCAR-4 ovarian
SF-295 CNS = tested on: SF-295 CNS
SK-MEL-5 melanoma = tested on: SK-MEL-5 melanoma
T-47D breast = tested on: T-47D breast
UACC-62 melanoma = tested on: UACC-62 melanoma
UO-31 renal = tested on: UO-31 renal
SR leukemia = tested on: SR leukemia

Row | Structure (SMILES) | TGI (A498 renal) [µM] | TGI (ACHN renal) [µM] | TGI (BT-549 breast) [µM] | TGI (COLO 205 colon) [µM] | TGI (LOX IMVI melanoma) [µM] | TGI (MDA-N) [µM] | TGI (NCI-H226 lung) [µM] | TGI (OVCAR-4 ovarian) [µM] | TGI (SF-295 CNS) [µM] | TGI (SK-MEL-5 melanoma) [µM] | TGI (T-47D breast) [µM] | TGI (UACC-62 melanoma) [µM] | TGI (UO-31 renal) [µM] | TGI (SR leukemia) [µM]
1 | CC1=C(C)C(=O)OC(C(C)(O)C2(O)CC3OC34C3CC(O)C56OC5C=CC(=O)C6(C)C3CCC42C)C1 (configuration not stated) | 7.81 | 2.45 | 3.11 | > 29 | 5.38 | 15.5 | 12.9 | 20.3 | 15.2 | > 24.1 | > 43.3 | 3.15 | 2.62 | 
2 | COc1ccc(-c2c(C#N)c(N)[nH]c(=S)c2C#N)cc1 | > 100 | > 100 | 85.4 | > 100 | > 100 | 28.5 | > 100 | > 100 | > 100 | > 100 |  | > 100 | > 100 | > 100
3 | COc1ccc(C2CC(c3sc(Nc4ccc(C)cc4)nc3C)=NN2)cc1 (configuration not stated) | 30.7 |  |  | 26.9 | 34.4 |  | 33.5 | 18.3 | 30.5 | 30.1 |  | > 55.3 | 29.4 | 
4 | CCC(C)C(Nc1c2ccccc2nc2c(C(=O)NCCN(C)C)cccc12)C(=O)O (configuration not stated) | 42.4 | > 100 |  | > 100 | > 100 | 86.4 | 32.1 | 25.8 | 40.9 | > 100 |  | 47.4 | 81.5 | > 100
5 | CC(C)CC1c2[nH]c3ccccc3c2C[C@H]2C(=O)NC(Cc3c[nH]c4ccccc34)C(=O)N12 (some centres not stated) | 33.4 | 60 | 36.2 | 34.8 | 31.1 |  | 50 | 63.8 | 43.8 | 26 | 42.5 | 36 | 42.9 | 45.5
6 | COc1cc(/C=C/C(=O)CC(=O)/C=C/c2cc(C)c(O)c(OC)c2)cc(C)c1O | > 100 | > 100 | > 100 | > 100 | > 100 |  | > 100 | > 100 | > 100 | > 100 | > 100 | > 100 | > 100 | > 100
7 | COC(=O)c1ccc(OCCn2nnc(C(=O)NN)c2C(=O)NN)cc1 |  | > 100 | > 100 | > 100 | > 100 | > 100 |  | > 100 | > 100 | > 100 |  |  | > 100 | > 100
8 | Cc1cn(S(=O)(=O)c2ccccc2)c2c(OCc3ccccc3)cc([N+](=O)[O-])cc12 | > 100 | > 100 | > 100 | > 100 | > 100 |  | > 100 | > 100 | > 100 | > 100 | > 100 | > 100 | > 100 | 
9 | O=C1CCCC2=C1CC1=C(CCCC1=O)N2c1ccc(Cl)cc1 | > 100 | > 100 | > 100 | > 100 | > 100 | > 100 | > 100 | > 100 | > 100 | > 100 |  | > 100 | > 100 | > 100
10 | COc1cc(/C=C/c2ccc(OC)c(OC)c2)oc(=O)c1 | > 250 |  |  | > 250 | > 250 |  | > 250 | > 250 | > 250 | > 250 |  | > 250 | > 250 | 
11 | CCOP(=O)(OCC)C(c1ccc(F)cc1)N(C(=O)NC(F)(F)F)c1ccc(F)cc1 (configuration not stated) |  | > 100 |  | > 100 | > 100 | > 100 | > 100 |  | > 100 | > 100 |  |  | > 100 | > 100
12 | COc1c(C(=O)/C(=N/Nc2ccc(C(=O)O)cc2)C(C)=O)c(O)cc2occc12 |  | > 100 |  | > 100 | > 100 | > 100 | > 100 |  | > 100 | > 100 | > 100 | > 100 | > 100 | > 100
13 | CC1=NNC(=O)C1C1(C(=O)O)CC(c2c[nH]c3ccccc23)=NC(=S)N1 (configuration not stated) | > 100 | > 100 | > 100 | 34.1 | 39.6 | > 100 | 85.8 |  | 91.1 | 27.5 | > 100 | > 100 | > 100 | 
14 | O=C(Nc1ccccc1C(=O)NCc1ccccc1)/C(=C/c1ccccc1O)NC(=O)c1ccccc1 | > 100 | > 100 |  | > 100 | > 100 |  | > 100 |  | > 100 | > 100 | > 100 | > 100 | > 100 | > 100
15 | CN(C)CCNC(=O)c1cccc2c1C(=O)c1ccccc1C2=O | > 100 |  |  | 34.2 | > 75.1 |  | > 100 | 88.8 | > 100 | 40.2 |  | 47.9 | > 100 | 
16 | CC(O)C(CO)NC(=O)C1CSSCC(NC(=O)C(N)Cc2ccccc2)C(=O)NC(Cc2ccccc2)C(=O)NC(Cc2c[nH]c3ccccc23)C(=O)NC(CCCCN)C(=O)NC(C(C)O)C(=O)N1 (configuration not stated) | > 100 | > 100 |  | > 100 | > 100 | > 100 | > 100 | > 100 | > 100 | > 100 | > 100 | > 100 | > 100 | > 100
17 | COc1ccc2c(c1)/C(=C\c1c(Cl)nc3n1CCS3)C(=O)N2 | 33.2 | > 100 | 44 | 10.9 | > 100 | 6.54 |  | > 100 | 44.5 | 17.2 | 32.7 | 16.3 | > 100 | 
18 | CN(C)N1C(=O)C(=O)N(c2cccc3ccccc23)C1=O | > 10 | > 10 |  | > 10 | > 10 | > 10 | > 10 | > 10 | > 10 | > 10 | > 10 | > 10 | > 10 | > 10

From PubChem BioAssay (NCI)
